Reference: patent US11578310B2, “Method for producing CD4/CD8 double-positive T cells” (Kyoto University, priority 2016, dated 2023)

System: hematopoietic progenitor cells induced from iPS cells or ES cells
Test: Induction of CD4/CD8 double-positive T cells from hematopoietic progenitor cells induced from pluripotent stem cells (flow cytometry)
Assay type: cell-based, human
Conditions: TKT3v 1-7 line; medium containing SB203580 alone or SDF-1α alone vs neither; FIG. 5
Method: On an ultralow-adhesion-treated 6-well plate (CORNING: #3471). TkT3V1-7. Ffl-01, Ffl-14, or KhES-3 was plated at 3×10^5 to 6×10^5 cells/well (Day 0), and the cells were cultured under hypoxic conditions (5% O2) for five days in EB medium (StemPro34 supplemented with 10 μg/ml human insulin, 5.5 μg/ml human transferrin, 5 ng/ml sodium selenite, 2 mM L-glutamine, […] α-monothioglycerol, and 50 μg/ml ascorbic acid) supplemented with 10 ng/ml BMP4, 5 ng/ml bFGF, 15 ng/ml VEGF, and 2 μM SB431542 (Day 5).
Subsequently, 50 ng/ml SCF, 30 ng/ml TPO, and 10 ng/ml Flt3L were added, and additional culture was performed for 5 to 9 days (up to Day 14).

Substance	induction of CD4/CD8 double-positive T cells, each agent used alone
SDF-1α	can be produced even when each of these was used alone
4-(4-fluorophenyl)-2-(4-methylsulfonylphenyl)-5-(4-pyridyl)-1H-imidazole [SB203580]	can be produced even when each of these was used alone
